Among the data in ChEMBL document CHEMBL4334471, “Discovery of 1,8-disubstituted-[1,2,3]triazolo[4,5-c]quinoline derivatives as a new class of Hippo signaling pathway inhibitors” (Bioorg Med Chem Lett, 2019) are Activity values, retold here.

For assay [1], the target named is ALK tyrosine kinase receptor (Homo sapiens) (UniProt Q9UM73). As to the kind of experiment: Inhibition of human ALK (1058 to end residues) assessed as residual activity at 10 uM using KKKSPGEYVNIEFG as substrate incubated for 40 mins in presence of [gamma-33ATP] by scintillation counting based radiometry assay relative to control.
The target in assay [2] is Activin receptor type-1 (Homo sapiens) (UniProt Q04771). As to the kind of experiment: Inhibition of human ALK2 (147 to end residues) assessed as residual activity at 10 uM using casein as substrate incubated for 40 mins in presence of [gamma-33ATP] by scintillation counting based radiometry assay relative to control.
Assay [3] has as its target Activin receptor type-1B (Homo sapiens) (UniProt P36896). As to the kind of experiment: Inhibition of human ALK4 (150 to end residues) assessed as residual activity at 10 uM using casein as substrate incubated for 40 mins in presence of [gamma-33ATP] by scintillation counting based radiometry assay relative to control.
Assay [4] addresses Mitogen-activated protein kinase kinase kinase 5 (Homo sapiens) (UniProt Q99683). As to the kind of experiment: Inhibition of recombinant human ASK1 (649 to 946 residues) assessed as residual activity at 10 uM using myelin basic protein as substrate incubated for 40 mins in presence of [gamma-33ATP] by scintillation counting based radiometry assay relative to control.
Assay [5] addresses Serine/threonine-protein kinase BRSK1 (Homo sapiens) (UniProt Q8TDC3). As to the kind of experiment: Inhibition of recombinant human BRSK1 ( 2 to end residues) assessed as residual activity at 10 uM using KKKVSRSGLYRSPSMPENLNRPR substrate incubated for 40 mins in presence of [gamma-33ATP] by scintillation counting based radiometry assay relative to control.
Assay [6] concerns the target Calcium/calmodulin-dependent protein kinase type 1G (Homo sapiens) (UniProt Q96NX5). As to the kind of experiment: Inhibition of recombinant full length human CaMKIgamma assessed as residual activity at 10 uM using KKLRRTLSFAEPG as substrate incubated for 40 mins in presence of [gamma-33ATP] by scintillation counting based radiometry assay relative to control.
Assay [7] has as its target Cyclin-dependent kinase-like 4 (Homo sapiens) (UniProt Q5MAI5). As to the kind of experiment: Inhibition of recombinant full length human CDKL4 assessed as residual activity at 10 uM in presence of [gamma-33ATP] by scintillation counting based radiometry assay relative to control.
Assay [8] has as its target Dual specificity protein kinase CLK1 (Homo sapiens) (UniProt P49759). As to the kind of experiment: Inhibition of recombinant human CLK1 (130 to end residues) assessed as residual activity at 10 uM using ERMRPRKRQGSVRRRV as substrate incubated 40 mins in presence of [gamma-33ATP] by scintillation counting based radiometry assay relative to control.
Assay [9] deals with Mast/stem cell growth factor receptor Kit (Homo sapiens), P10721 [V654A]. As to the kind of experiment: Inhibition of recombinant human C-Kit V654A mutant (544 to end residues) assessed as residual activity at 10 uM poly(Glu, Tyr) 4:1 as substrate incubated 40 mins in presence of [gamma-33ATP] by scintillation counting based radiometry assay relative to control.
For assay [10], the target named is Proto-oncogene tyrosine-protein kinase Src (Homo sapiens) (UniProt P12931). As to the kind of experiment: Inhibition of recombinant human C-Src assessed as residual activity at 10 uM Cdc2 peptide as substrate incubated 40 mins in presence of [gamma-33ATP] by scintillation counting based radiometry assay relative to control.
Assay [11] addresses Vascular endothelial growth factor receptor 1 (Homo sapiens) (UniProt P17948). As to the kind of experiment: Inhibition of recombinant human FLT1 (783 to end residues) assessed as residual activity at 10 uM using KKKSPGEYVNIEF as substrate at 40 mins in presence of [gamma-33ATP] by scintillation counting based radiometry assay relative to control.
The target in assay [12] is Homeodomain-interacting protein kinase 4 (Homo sapiens) (UniProt Q8NE63). As to the kind of experiment: Inhibition of human HIPK4 assessed as residual activity at 10 uM using RRRFRPASPLRGPPK as substrate after 40 mins by [gamma-33ATP] radiometric assay relative to control.
Assay [13] concerns the target Interleukin-1 receptor-associated kinase 1 (Homo sapiens) (UniProt P51617). As to the kind of experiment: Inhibition of human IRAK1 (194 to end residues) assessed as residual activity at 10 uM using myelin basic protein as substrate after 40 mins by [gamma-33ATP] radiometric assay relative to control.
Assay [14] deals with Tyrosine-protein kinase JAK2 (Homo sapiens) (UniProt O60674). As to the kind of experiment: Inhibition of human JAK2 (808 to end residues) assessed as residual activity at 10 uM using KTFCGTPEYLAPEVRREPRILSEEEQEMFRDFDYIADWC as substrate after 40 mins by [gamma-33ATP] radiometric assay relative to control.
Assay [15] addresses Serine/threonine-protein kinase MAK (Homo sapiens) (UniProt P20794). As to the kind of experiment: Inhibition of recombinant human MAK assessed as residual activity at 10 uM using RRRFRPASPLRGPPK as substrate after 120 mins in presence of [gamma-33ATP] by scintillation counting based radiometry assay relative to control.
The target of assay [16] is MAP kinase-activated protein kinase 3 (Homo sapiens) (UniProt Q16644). As to the kind of experiment: Inhibition of recombinant human MAPKAPK3 (2 to end residues) assessed as residual activity at 10 uM using KKLNRTLSVA as substrate incubated for 40 mins in presence of [gamma-33ATP by scintillation counting based radiometry assay relative to control.
Assay [17] has as its target Serine/threonine-protein kinase Nek11 (Homo sapiens) (UniProt Q8NG66). As to the kind of experiment: Inhibition of recombinant full length human NEK11 assessed as residual activity at 10 uM using myelin basic protein as substrate measured after 40 mins in presence of [gamma33P]ATP by scintillation counting based radiometry assay relative to control.
For assay [18], the system named is Protein kinase C eta type (Homo sapiens), P24723 [UNDEFINED MUTATION]. As to the kind of experiment: Inhibition of recombinant human PKCeta V108L/G109R/L392Q mutant (2 to end residues) assessed as residual activity at 10 uM using ERMRPRKRQGSVRRRV as substrate incubated for 40 mins in presence of [gamma33P]ATP by scintillation counting based radiometry assay relative to control.

Assay [19] has as its target cGMP-dependent protein kinase 1 (Homo sapiens) (UniProt Q13976). As to the kind of experiment: Inhibition of recombinant full-length human PKG1alpha assessed as residual activity at 10 uM using RRRLSFAEPG as substrate incubated for 40 mins in presence of [gamma33P]ATP by scintillation counting based radiometry assay relative to control.
The target in assay [20] is Serine/threonine-protein kinase 16 (Homo sapiens) (UniProt O75716). As to the kind of experiment: Inhibition of human STK16 assessed as residual activity at 10 uM in presence of [gamma33P]ATP by scintillation counting based radiometry assay relative to control.
Assay [21] addresses High affinity nerve growth factor receptor (Homo sapiens) (UniProt P04629). As to the kind of experiment: Inhibition of recombinant human TRKA (440 to end residues) assessed as residual activity at 10 uM using KKKSPGEYVNIEF as substrate incubated for 40 mins in presence of [gamma33P]ATP by scintillation counting based radiometry assay relative to control.

Vascular endothelial growth factor receptor 1 (Homo sapiens), sequence (P17948 whole entry): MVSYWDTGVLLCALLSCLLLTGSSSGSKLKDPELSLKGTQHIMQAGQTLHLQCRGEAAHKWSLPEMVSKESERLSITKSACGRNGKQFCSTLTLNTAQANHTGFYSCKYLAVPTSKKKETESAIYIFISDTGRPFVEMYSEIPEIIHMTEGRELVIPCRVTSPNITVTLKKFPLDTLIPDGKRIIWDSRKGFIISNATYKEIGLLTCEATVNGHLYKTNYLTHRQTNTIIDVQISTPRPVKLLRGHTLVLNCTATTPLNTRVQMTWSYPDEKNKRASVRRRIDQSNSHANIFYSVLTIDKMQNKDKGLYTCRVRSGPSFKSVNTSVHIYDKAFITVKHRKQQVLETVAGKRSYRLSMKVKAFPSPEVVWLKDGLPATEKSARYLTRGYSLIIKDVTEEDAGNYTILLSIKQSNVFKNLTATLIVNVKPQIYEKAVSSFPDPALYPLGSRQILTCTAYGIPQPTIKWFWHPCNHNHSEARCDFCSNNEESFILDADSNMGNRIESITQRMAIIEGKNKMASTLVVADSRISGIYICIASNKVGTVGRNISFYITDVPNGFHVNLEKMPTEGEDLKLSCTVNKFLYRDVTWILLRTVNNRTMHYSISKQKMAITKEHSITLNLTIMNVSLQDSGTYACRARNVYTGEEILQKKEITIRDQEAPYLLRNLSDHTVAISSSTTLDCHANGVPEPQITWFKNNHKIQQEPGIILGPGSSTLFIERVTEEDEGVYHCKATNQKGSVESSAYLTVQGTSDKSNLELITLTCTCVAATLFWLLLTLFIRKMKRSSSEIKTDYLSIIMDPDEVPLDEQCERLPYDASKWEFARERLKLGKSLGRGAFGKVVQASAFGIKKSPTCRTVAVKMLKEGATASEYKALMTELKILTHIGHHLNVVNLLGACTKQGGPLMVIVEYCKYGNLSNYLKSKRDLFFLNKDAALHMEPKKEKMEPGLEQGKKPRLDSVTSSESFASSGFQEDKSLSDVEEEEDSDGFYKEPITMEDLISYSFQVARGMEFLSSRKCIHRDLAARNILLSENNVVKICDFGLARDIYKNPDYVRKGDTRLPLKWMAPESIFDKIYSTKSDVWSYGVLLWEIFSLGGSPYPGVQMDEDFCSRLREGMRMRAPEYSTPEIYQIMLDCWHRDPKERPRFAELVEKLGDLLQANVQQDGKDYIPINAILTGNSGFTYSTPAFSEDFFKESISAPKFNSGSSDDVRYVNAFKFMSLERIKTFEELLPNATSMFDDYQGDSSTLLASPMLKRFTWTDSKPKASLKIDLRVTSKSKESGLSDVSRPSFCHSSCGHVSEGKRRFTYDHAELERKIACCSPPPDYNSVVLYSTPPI
Serine/threonine-protein kinase 16 (Homo sapiens), sequence (O75716 whole entry): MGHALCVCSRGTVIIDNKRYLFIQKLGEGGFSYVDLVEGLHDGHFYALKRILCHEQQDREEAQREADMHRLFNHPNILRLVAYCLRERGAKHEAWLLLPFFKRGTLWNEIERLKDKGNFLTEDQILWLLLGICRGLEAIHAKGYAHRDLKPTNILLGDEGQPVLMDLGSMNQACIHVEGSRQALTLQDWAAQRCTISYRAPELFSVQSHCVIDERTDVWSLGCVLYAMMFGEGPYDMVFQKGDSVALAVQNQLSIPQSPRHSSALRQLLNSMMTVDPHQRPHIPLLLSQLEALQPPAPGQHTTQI
Cyclin-dependent kinase-like 4 (Homo sapiens), sequence (Q5MAI5 whole entry): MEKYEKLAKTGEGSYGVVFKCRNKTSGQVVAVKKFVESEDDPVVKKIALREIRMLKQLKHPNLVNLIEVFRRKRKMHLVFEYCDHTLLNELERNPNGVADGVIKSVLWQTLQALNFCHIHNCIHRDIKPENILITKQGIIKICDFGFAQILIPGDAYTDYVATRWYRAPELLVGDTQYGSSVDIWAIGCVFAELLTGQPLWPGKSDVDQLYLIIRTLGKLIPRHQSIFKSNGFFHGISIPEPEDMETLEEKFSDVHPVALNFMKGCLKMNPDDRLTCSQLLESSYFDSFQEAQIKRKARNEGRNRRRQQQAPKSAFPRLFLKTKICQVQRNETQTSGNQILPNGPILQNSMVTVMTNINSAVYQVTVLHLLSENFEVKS
Tyrosine-protein kinase JAK2 (Homo sapiens), sequence (O60674 whole entry): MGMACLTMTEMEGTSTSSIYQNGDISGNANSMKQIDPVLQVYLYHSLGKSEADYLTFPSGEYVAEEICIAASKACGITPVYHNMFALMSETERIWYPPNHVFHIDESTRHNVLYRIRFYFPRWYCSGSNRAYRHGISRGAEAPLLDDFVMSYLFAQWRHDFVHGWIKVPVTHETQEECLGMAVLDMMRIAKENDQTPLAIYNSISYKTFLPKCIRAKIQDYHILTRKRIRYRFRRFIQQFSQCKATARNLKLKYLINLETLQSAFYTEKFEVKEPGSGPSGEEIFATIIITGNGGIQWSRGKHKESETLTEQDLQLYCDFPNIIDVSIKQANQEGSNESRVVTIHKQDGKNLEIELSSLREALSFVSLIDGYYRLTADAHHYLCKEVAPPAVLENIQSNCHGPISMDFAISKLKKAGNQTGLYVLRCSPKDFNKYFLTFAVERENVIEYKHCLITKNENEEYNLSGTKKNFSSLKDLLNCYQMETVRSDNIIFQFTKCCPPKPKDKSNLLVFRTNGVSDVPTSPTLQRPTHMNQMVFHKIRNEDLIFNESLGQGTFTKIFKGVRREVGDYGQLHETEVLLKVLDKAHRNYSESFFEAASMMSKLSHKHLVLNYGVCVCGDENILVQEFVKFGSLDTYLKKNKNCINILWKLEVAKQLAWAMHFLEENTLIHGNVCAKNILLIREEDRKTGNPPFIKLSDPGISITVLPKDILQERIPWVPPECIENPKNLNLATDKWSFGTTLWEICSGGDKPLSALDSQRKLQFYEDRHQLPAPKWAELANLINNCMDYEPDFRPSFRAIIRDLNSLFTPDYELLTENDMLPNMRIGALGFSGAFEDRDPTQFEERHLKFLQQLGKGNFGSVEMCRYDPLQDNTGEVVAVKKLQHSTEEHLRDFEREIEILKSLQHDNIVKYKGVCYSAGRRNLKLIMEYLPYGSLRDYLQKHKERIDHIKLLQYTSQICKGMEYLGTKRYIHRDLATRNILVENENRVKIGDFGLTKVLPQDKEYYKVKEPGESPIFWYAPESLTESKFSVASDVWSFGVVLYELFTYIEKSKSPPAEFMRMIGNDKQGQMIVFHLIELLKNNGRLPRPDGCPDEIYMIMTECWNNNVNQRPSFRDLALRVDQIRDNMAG
ALK tyrosine kinase receptor (Homo sapiens), sequence (Q9UM73 19-1620 limits assumed): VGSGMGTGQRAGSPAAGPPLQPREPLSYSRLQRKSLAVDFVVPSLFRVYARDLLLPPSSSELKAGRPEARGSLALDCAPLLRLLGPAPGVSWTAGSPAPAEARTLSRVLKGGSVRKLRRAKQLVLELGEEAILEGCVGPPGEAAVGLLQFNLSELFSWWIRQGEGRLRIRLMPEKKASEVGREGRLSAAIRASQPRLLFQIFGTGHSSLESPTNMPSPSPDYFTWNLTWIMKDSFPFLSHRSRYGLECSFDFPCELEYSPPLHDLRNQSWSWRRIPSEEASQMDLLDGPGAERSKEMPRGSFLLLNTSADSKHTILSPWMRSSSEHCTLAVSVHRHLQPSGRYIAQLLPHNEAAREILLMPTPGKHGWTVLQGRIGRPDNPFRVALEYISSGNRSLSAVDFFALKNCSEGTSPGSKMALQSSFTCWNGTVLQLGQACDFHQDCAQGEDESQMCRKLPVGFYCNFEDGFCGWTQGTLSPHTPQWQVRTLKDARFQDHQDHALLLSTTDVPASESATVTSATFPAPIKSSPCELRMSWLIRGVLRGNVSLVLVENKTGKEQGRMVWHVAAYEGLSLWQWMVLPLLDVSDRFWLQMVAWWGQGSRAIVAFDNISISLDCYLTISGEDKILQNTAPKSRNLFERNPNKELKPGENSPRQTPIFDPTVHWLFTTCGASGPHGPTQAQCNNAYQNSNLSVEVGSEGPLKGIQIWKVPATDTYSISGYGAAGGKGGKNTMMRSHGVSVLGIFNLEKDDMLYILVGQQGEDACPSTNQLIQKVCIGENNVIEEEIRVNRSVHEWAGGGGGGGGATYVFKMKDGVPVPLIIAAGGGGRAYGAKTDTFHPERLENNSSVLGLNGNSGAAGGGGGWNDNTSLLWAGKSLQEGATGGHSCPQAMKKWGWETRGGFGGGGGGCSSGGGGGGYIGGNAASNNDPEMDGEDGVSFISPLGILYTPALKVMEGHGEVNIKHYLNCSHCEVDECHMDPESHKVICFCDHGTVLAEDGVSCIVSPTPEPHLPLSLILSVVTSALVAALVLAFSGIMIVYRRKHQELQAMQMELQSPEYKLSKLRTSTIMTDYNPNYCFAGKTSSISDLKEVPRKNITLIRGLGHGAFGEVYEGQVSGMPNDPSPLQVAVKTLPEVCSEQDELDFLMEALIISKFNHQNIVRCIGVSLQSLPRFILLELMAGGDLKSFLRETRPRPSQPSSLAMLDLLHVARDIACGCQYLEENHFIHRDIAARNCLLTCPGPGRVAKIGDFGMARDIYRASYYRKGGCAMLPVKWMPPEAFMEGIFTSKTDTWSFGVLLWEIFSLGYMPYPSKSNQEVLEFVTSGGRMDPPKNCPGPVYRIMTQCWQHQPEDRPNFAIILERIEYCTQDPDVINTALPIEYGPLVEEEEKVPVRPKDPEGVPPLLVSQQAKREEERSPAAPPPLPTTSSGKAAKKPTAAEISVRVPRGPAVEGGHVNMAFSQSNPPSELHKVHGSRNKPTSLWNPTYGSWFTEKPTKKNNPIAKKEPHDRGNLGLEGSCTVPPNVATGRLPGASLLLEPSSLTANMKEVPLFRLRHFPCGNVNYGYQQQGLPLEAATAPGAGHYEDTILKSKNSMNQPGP

In the case of `C[C@@H](c1ccccc1)n1nnc2cnc3ccc(-c4cnc5[nH]ccc5c4)cc3c21`, the Activity in assay [1] amounted to 28%; in assay [2], 88%; in assay [3] it was 100%; in assay [4], 58%; in assay [5], 36%; in assay [6] it was 47%. The Activity worked out at 96% in [7]; 38% in assay [8]; 109% in [9]; 27% in [10]; 49% in [11]; 57% in assay [12]. For the same molecule, the Activity was determined as 84% in assay [13]; 43% in [14]; 87% in assay [15]; 76% in [16]; 103% in [17]; 82% in assay [18]. Also, the results for the Activity in assay [19], in [20] and in assay [21] were 70%, 59% and 5%, respectively.
